The experiment deals with Mab bolletii CCUG 50184-T. The experiment is described as follows: MIC against Mab bolletii CCUG 50184-T. Type of experiment: cell-based, Mycobacterium abscessus subsp. bolletii. As to conditions: Mycobacteroides abscessus; for MIC50: CCUG50184, 72 h, 3 days.

The record followed here is paper PMC12281142, “A potent phenylalkylamine disrupts mycobacterial membrane bioenergetics and augments bactericidal activity of bedaquiline” (iScience, 2025).

In general, MIC90 refers to an inhibitory concentration at the 90% level, which refers to growth in some studies and to a panel of isolates in others. Low values mean greater potency, high ones weaker potency. The MIC50 is the lowest concentration that inhibits either 50% of growth or 50% of the strains tested, depending on the study. Higher therefore signals lower susceptibility.

In brackets after ≈: the same amount, converted by molar mass.

With `CCCCCCCCC(C#N)(CCCN(C)CCc1ccc(OC)c(OC)c1)c1ccc(OC)c(OC)c1` (stereo not shown) [PhA2], the MIC90 came out at 95 µM (≈ 49.9 µg/mL) (CCUG50184, 7H9 broth (first value)) and 27 µM (≈ 14.2 µg/mL) (CCUG50184, camH broth (second value)). Also, the MIC50 stood at 62 µM (≈ 32.5 µg/mL) (7H9 medium (first value of cell)) and 16 µM (≈ 8.4 µg/mL) (CA-MHB medium (second value of cell)).
